Assay [1] relates to aVP-induced IP3 production in hVSMC. Kind of assay: IP3 production (ELISA) in hVSMC upon aVP stimulation. The conditions noted are these: TM peptides 10 µM, 30 min at 37°C, then aVP 1 µM, 5 min; n = 4; figure 8c. It is filed as cell-based, human. The procedure:
(§1) hVSMCs (primary aortic smooth muscle cells, ATCC PCS-100-012), A7r5 cells (ATCC-CRL-1444) and HEK293T cells (ATCC-CRL-11268) were purchased from American Type Culture Collection. hVSMCs were cultured in vascular basal media (ATCC PCS-100-030) supplemented with the vascular smooth muscle growth kit (ATCC PCS-100-042), containing 100 U ml^−1 penicillin and 100 µg ml^−1 streptomycin. hVSMCs were used between passages 2–5. HEK293T and A7r5 cells were cultured in high-glucose Dulbecco's Modified Eagle's Medium containing 10 mg ml^−1 sodium pyruvate, 2 mM L-glutamine, 10% (vol/vol) FBS, 1× non-essential amino acids, 100 U ml^−1 penicillin and 100 µg ml^−1 streptomycin. The HTLA cell line, a HEK293 cell line stably expressing a tTA-dependent luciferase reporter and a β-arrestin 2–TEV fusion gene were generously provided by the laboratory of Dr Bryan Roth and maintained in high-glucose Dulbecco's Modified Eagle's Medium supplemented with 10% (vol/vol) FBS, 1× non-essential amino acids, 100 U ml^−1 penicillin, 100 µg ml^−1 streptomycin, 50 µg ml^−1 hygromycin B and 2 µg ml^−1 puromycin. All cells were cultured in a humidified environment at 37°C, 5% CO2.
ACKR3 and CXCR4 siRNA gene silencing was performed as described previously. In brief, cells were grown in 2 ml Accell siRNA delivery media per well (Dharmacon) in six-well plates (Nunc). Commercially available Accell ACKR3 and CXCR4 siRNA were reconstituted with 1× siRNA buffer to a stock concentration of 100 µM. Cells were then transfected with 1 µM ACKR3/CXCR4 siRNA and incubated for 72 h at 37°C, 5% CO2. Accell NT-siRNA pool was used as a negative control. After 72 h, cells were assayed for receptor cell surface expression and used for signalling experiments.
IP3 enzyme-linked immunosorbent assays were purchased from LS Bio and performed as per the manufacturer's protocol (LS BIO F10644). In brief, hVSMCs were grown to confluency in six-well dishes (Nunc) and then treated as described in the Results section. Cells were then washed once with cold PBS, 225 µl of cold PBS was added to each well and cells were lysed by ultrasonication. The cell lysate was centrifuged for 10 min at 4°C at 1500g to remove cellular debris. The total protein concentration in the supernatant was determined with the Bio-Rad DC Protein Assay as per the manufacturer's protocol (Bio-Rad 500-0116). Equivalent amounts of total protein were added to the ELISA strips diluted in the provided sample diluent (1 : 5 and 1 : 10). The assay was then completed as per the manufacturer's protocol. Optical densities were read on a Biotek Synergy II microplate reader (absorbance at 450 nm), and IP3 concentrations were extrapolated from the standard curve.

Another assay relates to ACKR3 : AVPR1A heteromer. In words: PLA signals for ACKR3 : AVPR1A interactions in hVSMC. In kind it is cell-based, human. The conditions noted are these: 10 µM, 30 min at 37°C; figure 8b; *p < 0.05 versus vehicle. The procedure: as §1
(§2) PLAs were performed as described in detail previously. In brief, cells were grown and fixed on eight-well chamber slides (Nunc). […]

A further assay relates to CXCR4 : AVPR1A heteromer. In words: PLA signals for CXCR4 : AVPR1A interactions in hVSMC. In kind it is cell-based, human. The conditions noted are these: 10 µM, 30 min at 37°C; figure 8b. The procedure: as §1, §2
The test system of assay [2] is ACKR3. Kind of assay: β-arrestin 2 recruitment assay (PRESTO-Tango) for ACKR3 co-expressed with pcDNA3 or HA-AVPR1A. The conditions noted are these: cells co-expressing ACKR3-Tango and AVPR1A, TM peptides 10 µM, 30 min at 37°C, figure 9h; for effect of TM peptides on efficacy of aVP to induce β-arrestin 2 recruitment to ACKR3-Tango: then aVP, versus vehicle. In kind it is cell-based, human.
Excerpt: The human AVPR1A cDNA sequence was from the AVPR1A-TANGO plasmid (Addgene, plasmid #66225). The hRLuc cDNA was PCR-amplified from pIRES-Myc-hCXCR4-Rluc, which was generously provided by Dr Michel Bouvier, with primers carrying the AgeI and XbaI sites at either end, respectively, and ligated with the C-terminus of AVPR1A at the corresponding sites. Human CXCR4 and ACKR3 cDNAs were from the CXCR4-TANGO (Addgene, plasmid #66262) and the ACKR3-TANGO (Addgene, plasmid #66265) plasmids. The EYFP cDNA was PCR-amplified from pEYFP with primers harbouring AgeI and XbaI sites and ligated with the C-terminus of ACKR3. All plasmids were confirmed by sequencing.
as §1
The PRESTO-Tango (parallel receptorome expression and screening via transcriptional output, with transcriptional activation following arrestin translocation) assay was performed as recently described. The Tango plasmids were a gift from Dr Bryan Roth (all from Addgene). HTLA cells (2.5 × 10^5 per well) were seeded in a six-well plate and transfected with 1.5 µg of the Tango plasmids using Lipofectamine 3000 (ThermoScientific). The following day, transfected HTLA cells (1 × 10^5 cells per well) were plated onto poly-L-lysine precoated 96-well microplates and allowed to attach to the plate surface for at least 4 h prior to treatment. Proteins used for treatment were prepared in twice the final concentration in culture media, added at a 1 : 1 vol/vol ratio and incubated overnight at 37°C, 5% CO2 in a humidified environment. The following morning, media were removed from cell culture plates and replaced with a 100 µl 1 : 5 mixture of Bright-Glo (Promega) and 1× HBSS, 20 mM HEPES solution. Plates were then incubated at room temperature before measuring luminescence on a Biotek Synergy II plate reader.
A general note: Arrestin recruitment assays detect the binding of arrestin to an activated receptor.

Assay [3] deals with ACKR3. The following applies: ref [21]; cited from earlier work. The procedure: The effects of the TM peptide analogues of ACKR3 on aVP-induced recruitment of β-arrestin 2 to ACKR3-Tango in cells co-expressing ACKR3-Tango and AVPR1A are shown in figure 9h.

As to “VVCILWLLAFCVSLPDTYYLDD [TM4, peptide analogue of transmembrane helix 4 (TM4) of ACKR3, described previously [21]]”, in assay [1], the “effect of TM peptides on aVP-induced IP3 production” value was “inhibited aVP-induced IP3 production”. For the same sequence, in the assay with ACKR3 : AVPR1A heteromer, the “effect of TM peptides on PLA signals for AVPR1A : ACKR3 interactions” value is listed as “reduced PLA signals for AVPR1A : ACKR3 interactions”. Moreover, the “effect of TM peptides on PLA signals for AVPR1A : CXCR4 interactions” value in the assay with CXCR4 : AVPR1A heteromer is given as “did not increase AVPR1A : CXCR4 interactions”. Further, in the assay with ACKR3 [2], the “effect of TM peptides on efficacy of aVP to induce β-arrestin 2 recruitment to ACKR3-Tango” value (from here on “effect of TM peptides on efficacy of aVP”) is on record as “significantly reduced the efficacy of aVP to induce β-arrestin 2 recruitment”, the “inhibition of aVP-induced β-arrestin 2 recruitment to ACKR3-Tango (comparison TM2/TM4)” value was “inhibited aVP-induced β-arrestin 2 recruitment to ACKR3-Tango with comparable efficacy” and the “mode of antagonism of aVP-induced β-arrestin 2 recruitment to ACKR3-Tango” value is listed as “non-competitive antagonists”. Moreover, the “behaviour in β-arrestin 2 recruitment to ACKR3-Tango upon agonist stimulation” value (“behaviour in β-arrestin 2 recruitment” for short) in the assay with ACKR3 [3] was “behaviour similar to the TM2 peptide, but this effect did not reach statistical significance”.
As for “YILNLAIADLWVVLTIPVWVVDDD [TM2, peptide analogue of transmembrane helix 2 (TM2) of ACKR3, described previously [21]]”, in assay [1], the “effect of TM peptides on aVP-induced IP3 production” value is recorded as “inhibited aVP-induced IP3 production”. The “effect of TM peptides on PLA signals for AVPR1A : ACKR3 interactions” value in the assay with ACKR3 : AVPR1A heteromer is given as “reduced PLA signals for AVPR1A : ACKR3 interactions”. In the assay with CXCR4 : AVPR1A heteromer, the “effect of TM peptides on PLA signals for AVPR1A : CXCR4 interactions” value is “did not increase AVPR1A : CXCR4 interactions”. Further, in the assay with ACKR3 [2], the “effect of TM peptides on efficacy of aVP” value is “significantly reduced the efficacy of aVP to induce β-arrestin 2 recruitment”, the “inhibition of aVP-induced β-arrestin 2 recruitment to ACKR3-Tango (comparison TM2/TM4)” value is “inhibited aVP-induced β-arrestin 2 recruitment to ACKR3-Tango with comparable efficacy” and the “mode of antagonism of aVP-induced β-arrestin 2 recruitment to ACKR3-Tango” value is on record as “non-competitive antagonists”. For the same sequence, the “behaviour in β-arrestin 2 recruitment” value with ACKR3 [3] is “competitive antagonist”.
With “DDDLHVTQCLSLVHCCVNPVLYSFIN [TM7, peptide analogue of transmembrane helix 7 (TM7) of ACKR3, described previously [21]]”, the “effect of TM peptides on aVP-induced IP3 production” value in assay [1] is listed as “ineffective”. In the assay on ACKR3 [2], the “effect of TM peptides on efficacy of aVP” value is on record as “did not show significant effects”. Besides, the “behaviour in β-arrestin 2 recruitment” value in the assay on ACKR3 [3] is “inactive”.

Values taken from article PMC5795052 (Open Biology, 2018).
